Converted amounts (≈) assume the structure as drawn. Read-outs that look alike come from different tables or passages of the source. Ends that are not written are not given here. Peptide text beside a SMILES is read from it.
Legend:
[1] = system: E. coli Rosetta DE3 pLysS; assay: MIC, liquid broth microdilution; format: cell-based, Escherichia coli; conditions: 25% MHBII medium, 7.5 × 10^6 CFU/mL, 37 °C, 20 ± 2 h, turbidity 600 nm, at least twice in triplicate
Description: (§1) The minimal inhibitory concentrations (MIC) were determined at least twice in triplicate using a liquid broth microdilution assay in sterile 96-well plates and a total volume of 100 μL per well. Aqueous peptide solutions were serially 2-fold diluted in 25% MHBII or 33% TSB medium in a volume of 50 µL. An overnight culture was diluted in 25% MHBII or 33% TSB medium to 1.5 × 10^7 CFU/mL, and an aliquot of 50 μL was added to each well. The final cell count in each well was 7.5 × 10^6 CFU/mL. The plates were incubated at 37 °C for 20 ± 2 h. The turbidity of each well was measured at a wavelength of 600 nm. The MIC was defined as the lowest peptide concentration where the turbidity was identical to medium only.

E. coli BW25113 = format: cell-based, Escherichia coli; conditions: BW25113, 2 h
Description: as §1, with “The plates were incubated at 37 °C for 20 ± 2 h.” left out

[2] = system: E. coli BL21 (DE3) RIL ribosome extract; conditions: values published for E. coli BL21 (DE3) RIL ribosome extract; read-out: Ki, cf-Api137; cited from earlier work
[3] = system: E. coli BL21 (DE3) RIL ribosome extract; conditions: values published for E. coli BL21 (DE3) RIL ribosome extract; read-out: Kd (printed in column Ros); cited from earlier work
Description: Table 2 Antibacterial activities, dissociation (Kd), and inhibition constants (Ki) of ribosome binding obtained for all PrAMPs included in the current study for E. coli strains BW25113 (BW) and Rosetta DE3 pLysS (Ros). | column: Kd [µmol/L] ** / Ros

[4] = system: E. coli BL21 (DE3) RIL ribosome extract; conditions: values published for E. coli BL21 (DE3) RIL ribosome extract; read-out: Ki, cf-Onc112; cited from earlier work
Description: Table 2 Antibacterial activities, dissociation (Kd), and inhibition constants (Ki) of ribosome binding obtained for all PrAMPs included in the current study for E. coli strains BW25113 (BW) and Rosetta DE3 pLysS (Ros). | column: Ki [µmol/L] *** / cf-Onc112

[5] = target: 70S ribosome extract of E. coli BW25113 (E. coli BW25113 (endogenous)); assay: fluorescence polarisation; competition: unlabeled peptide (2-fold series from 656 µmol/L) pre-incubated with BW25113 ribosome extract (28 °C, 90 min), then cf-Onc112 (10 µL, 80 nmol/L) added (28 °C, 90 min); ribosome preparation buffer; Ki calculated from IC50
[6] = target: 70S ribosome extract of E. coli BW25113 (E. coli BW25113 (endogenous)); assay: fluorescence polarisation; competition: unlabeled peptide (2-fold series from 656 µmol/L) pre-incubated with BW25113 ribosome extract (28 °C, 90 min), then cf-Api137 (10 µL, 80 nmol/L) added (28 °C, 90 min); ribosome preparation buffer; Ki calculated from IC50
[7] = target: 70S ribosome extract of E. coli BW25113 (E. coli BW25113 (endogenous))
[8] = lysates of E. coli Rosetta pLysS; conditions: 37 °C, up to 24 h
[9] = lysates of E. coli BW25113; conditions: E. coli BW25113, 37 °C, up to 24 h
[10] = target: 70S ribosome extract of E. coli BW25113 (E. coli BW25113 (endogenous)); remark: listed apart in the source

Row | Molecule | Ki [5] [nM] | Ki [6] [nM] | fragment found [8] | fragment found [9] | further results
1 | CC[C@H](C)[C@H](NC(=O)[C@@H]1CCCN1C(=O)[C@H](CCCNC(=N)N)NC(=O)[C@@H]1CCCN1C(=O)[C@H](Cc1c[nH]cn1)NC(=O)[C@H](CO)NC(=O)[C@@H](NC(=O)[C@@H]1CCCN1C(=O)[C@H](CCCNC(=N)N)NC(=O)[C@@H]1CCCN1C(=O)[C@H](CO)NC(=O)[C@H](Cc1ccc(O)cc1)NC(=O)[C@@H]1CCCN1C(=O)[C@H](CCCNC(=N)N)NC(=O)[C@@H]1CCCN1C(=O)[C@H](CCCCN)NC(=O)CN)[C@@H](C)O)C(=O)N[C@@H](CCCNC(=N)N)C(=O)N[C@H](C(=O)O)C(C)C [Drosocin] (H-GKPRPYSPRPTSHPRPIRV-OH; N-terminus assumed) |  |  |  |  | MIC, Ros [1]: 8 µg/mL (≈ 3.64 µM); MIC, BW (E. coli BW25113): 128 µg/mL (≈ 58.2 µM); Ki [2]: 9 nM; Kd [3]: 1080 nM; Ki [4]: 1780 nM
2 | Api137 (peptide) | 219 | 2 |  |  | inhibition of in vitro translation of GFP (PureExpress Delta RF123 kit with the kit's own ribosomes, RF1 added), GFP fluorescence relative to no PrAMP; peptide 0.05, 5 and 50 µmol/L [7]: 77%
3 | GNNRPIYIPRPRPPHPRPIRV-OH |  |  | Api805 1-16 (GNNRPIYIPRPRPPHP-OH), major | Api805 1-16 (GNNRPIYIPRPRPPHP-OH), major | 
4 | gu-ONNRPVYIPRPRPPHPRL-OH |  |  | Api137 1-17 (Gu-ONNRPVYIPRPRPPHPR-OH), major | Api137 1-17 (Gu-ONNRPVYIPRPRPPHPR-OH), major | 
5 | GNNRPIYIPRPRPPHPRPIRV-OH [Api805] | 489 | 1070 |  |  | inhibition of in vitro translation of GFP (PureExpress Delta RF123 kit with the kit's own ribosomes, RF1 added), GFP fluorescence relative to no PrAMP; peptide 0.05, 5 and 50 µmol/L [10]: 52%; inhibition of in vitro translation of GFP (PureExpress Delta RF123 kit with the kit's own ribosomes, no release factor), GFP fluorescence relative to no PrAMP; peptide 0.05, 5 and 50 µmol/L [10]: 38%

Source: article PMC9025336 (Antibiotics, 2022)
